The values below come from patent US12065434B2, “Metabolites of GLP1R agonists” (Pfizer Inc., priority 2020, dated 2024).

In one data set the test system is rabbit hepatocytes. Briefly: In vitro metabolism of Compound 2 in rabbit cryopreserved hepatocytes. Format: in vitro ADME. Further details: key to Relative abundance of metabolite of Compound 2, Rabbit: ND Not detected.; trace: Trace: observed by HPLC/MS measurements only.; + Minor as assessed by HPLC/UV measurements; ++ moderate as assessed by HPLC/UV measurements; +++ major as assessed by HPLC/UV measurements.; * m/z 593 and m/z 505 co-eluted in rabbit hepatocytes.; ** m/z 591 c and m/z 593 were merged in human hepatocytes and Hepatopack.; *** m/z 607 and m/z 751 b were merged in rabbit hepatocytes. Particulars: for metabolite of Compound 2 observed in rabbit hepatocyte incubations: 10 μM Compound 2, 7.5×10^5 cells/mL, 1 and 4 hrs composite. On the procedure: (§1) Male CD-1 mouse hepatocytes (lot YHL), male Wistar-Han rat hepatocytes (Celsius; product number: M000065; lot: SLA), female New Zealand rabbit hepatocytes (lot 1510147), male cryopreserved cynomolgus monkey hepatocytes (Celsius; product number: M00305; lot: DNB) and mixed-gender cryopreserved human hepatocytes (Bioreclamation; product number: S01988; lot: DCM) were obtained for the hepatocyte in-vitro assessments.
(§2) At time 0 hrs 550 μL aliquots were removed from incubations and quenched with 5 volumes of ACN containing 0.1% formic acid. At 1 and 4 hrs, 275 μL aliquots were removed and quenched as above; these were combined in the same tube to prepare a composite sample. For all hepatocyte experiments, samples were processed by centrifugation at 1900×g for 5 minutes, and then the supernatant was transferred to clean glass tubes and evaporated to dryness under a stream of N2 using a Turbovap at 37° C. Sample residues were reconstituted in mobile phase prior to analysis by HPLC/UV/MS^n.
(§3) Samples were analyzed by HPLC/UV/MS^n using a Thermo Orbitrap Elite mass spectrometer in conjunction with a Thermo Open Accela UHPLC system. A 3.0×150 mm, 2.5 μm Acquity CSH C18 HPLC column (Waters) was heated to 45° C. for separation of analytes. The mobile phase was a gradient of A): water containing 0.1% formic acid, and B): acetonitrile. The flow rate was 450 μL/min, and the following gradient program was utilized: […]
(§4) UV absorbance was monitored with a photo-diode array detector from 220-450 nm. The mass spectrometer was operated in positive-ion mode with a HESI ion source at a potential of 3.0 kV, and capillary and source heater temperatures of 380 and 300° C., respectively. Sheath, auxiliary, and sweep gas flows were set to 45, 10, and 2 units, respectively. Full scan mass spectra were acquired over the range 120-1200 m/z at a resolving power of 30,000 (specified at m/z 400). Data-dependent MS^n spectra were acquired in an automated fashion at 15,000 resolving power using CID and HCD fragmentation with normalized collision energy settings of 28 and 65 V, respectively.
(§5) Metabolites were characterized by comparisons of mass spectral fragmentation patterns with that of a Compound 2 standard. All HPLC/UV/MS^n data were processed using Xcalibur v. 2.2, and integrated UV peak areas were subjected to weighted UV binning procedures utilizing an Excel template.

A short description of data set [1]: Circulating metabolites of Compound 2 in rat plasma following a 1.0 mg/kg IV bolus dose. Type of data set: in vivo. Particulars: 1.0 mg/kg IV bolus dose of Compound 2, pooled 0.033-24 hrs. The procedure: Plasma and bile samples were obtained from a bile duct cannulated rat experiment (Study PK-0111) in which a 1.0 mg/kg IV bolus dose was administered to fed male rats (N=3). No control plasma was available from this experiment.
Clin Pharmacol Ther 1981; 29(3):408-13]. The entire volume of each replicate Hamilton pool was combined to create a single pooled sample (576 μL) for analysis.
Pooled plasma and bile samples were extracted with ACN containing 0.1% formic acid, and after centrifugation at 1900×g, the supernatant was transferred to clean tubes and evaporated under N2 in a Turbovap set at 37° C. Residues were reconstituted in mobile phase (5:95 v:v ACN:0.1% aqueous formic acid) prior to analysis by HPLC/UV/MS^n.
as §3, §4, §5

The test system of another data set is monkey hepatocytes. Briefly: In vitro metabolism of Compound 2 in monkey cryopreserved hepatocytes. Type of data set: in vitro ADME, cynomolgus monkey. Also noted: key to Relative abundance of metabolite of Compound 2, Monkey: ND Not detected.; trace: Trace: observed by HPLC/MS measurements only.; + Minor as assessed by HPLC/UV measurements; ++ moderate as assessed by HPLC/UV measurements; +++ major as assessed by HPLC/UV measurements.; * m/z 593 and m/z 505 co-eluted in rabbit hepatocytes.; ** m/z 591 c and m/z 593 were merged in human hepatocytes and Hepatopack.; *** m/z 607 and m/z 751 b were merged in rabbit hepatocytes. Particulars: for metabolite of Compound 2 observed in monkey hepatocyte incubations: 10 μM Compound 2, 7.5×10^5 cells/mL, 1 and 4 hrs composite. The procedure:
as §1, §2, §3, §4, §5

The next data set has as its system rat hepatocytes. The data set is described as follows: In vitro metabolism of Compound 2 in rat cryopreserved hepatocytes. Format: in vitro ADME. Further details: key to Relative abundance of metabolite of Compound 2, Rat: ND Not detected.; trace: Trace: observed by HPLC/MS measurements only.; + Minor as assessed by HPLC/UV measurements; ++ moderate as assessed by HPLC/UV measurements; +++ major as assessed by HPLC/UV measurements.; * m/z 593 and m/z 505 co-eluted in rabbit hepatocytes.; ** m/z 591 c and m/z 593 were merged in human hepatocytes and Hepatopack.; *** m/z 607 and m/z 751 b were merged in rabbit hepatocytes. Particulars: for metabolite of Compound 2 observed in rat hepatocyte incubations: 10 μM Compound 2, 7.5×10^5 cells/mL, 1 and 4 hrs composite. The procedure:
as §1, §2, §3, §4, §5

In the next data set the target is T1, human GLP-1R (Homo sapiens, UniProt P43220, L260F).
T1 construct: expressed in transfected cells
T1 sequence (P43220 24-463 L260F): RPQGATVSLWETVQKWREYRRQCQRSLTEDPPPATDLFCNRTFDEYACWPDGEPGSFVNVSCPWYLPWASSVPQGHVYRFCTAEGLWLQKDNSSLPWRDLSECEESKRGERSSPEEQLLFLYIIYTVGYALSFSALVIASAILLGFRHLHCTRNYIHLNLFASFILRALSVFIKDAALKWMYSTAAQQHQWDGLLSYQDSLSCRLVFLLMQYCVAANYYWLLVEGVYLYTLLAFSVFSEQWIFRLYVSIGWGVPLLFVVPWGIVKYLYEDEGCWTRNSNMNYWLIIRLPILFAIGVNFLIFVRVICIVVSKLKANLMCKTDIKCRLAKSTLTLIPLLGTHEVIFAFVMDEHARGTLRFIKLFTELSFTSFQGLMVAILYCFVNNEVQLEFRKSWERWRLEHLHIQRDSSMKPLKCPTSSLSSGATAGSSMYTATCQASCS
The data set is described as follows: CHO GLP-1R Clone C6 - Assay 2 (HTRF cAMP agonist assay, low receptor density). Type of data set: cell-based. Particulars: CHO GLP-1R Clone C6 (low receptor density), arithmetic mean, relative to 1 μM GLP-1.

Experimental for human GLP-1R: GLP-1R-mediated agonist activity was determined with a cell-based functional assay utilizing an HTRF (Homogeneous Time-Resolved Fluorescence) cAMP detection kit (cAMP HI Range Assay Kit; Cis Bio cat #62AM6PEJ) that measures cAMP levels in the cell. The method is a competitive immunoassay between native cAMP produced by the cells and exogenous cAMP labeled with the dye d2. The tracer binding is visualized by a mAb anti-cAMP labeled with Cryptate. The specific signal (i.e. energy transfer) is inversely proportional to the concentration of cAMP in either a standard or an experimental sample.
The human GLP-1R coding sequence (NCBI Reference Sequence NP_002053.3, including naturally-occurring variant Leu260Phe) was subcloned into pcDNA5-FRT-TO and a clonal CHO cell line stably expressing a low receptor density was isolated using the Flp-In™ T-Rex™ System, as described by the manufacturer (ThermoFisher).
Cells were removed from cryopreservation, re-suspended in 40 mL of Dulbecco's Phosphate Buffered Saline (DPBS—Lonza Cat #17-512Q) and centrifuged at 800×g for 5 minutes at 22° C. The DPBS was aspirated, and the cell pellet was re-suspended in 10 mL of complete growth medium (DMEM:F12 1:1 Mixture with HEPES, L-Gln, 500 mL (DMEM/F12 Lonza Cat #12-719F), 10% heat inactivated fetal bovine serum (Gibco Cat #16140-071), 5 mL of 100× Pen-Strep (Gibco Cat #15140-122), 5 mL of 100× L-Glutamine (Gibco Cat #25030-081), 700 μg/mL Hygromycin (Invitrogen Cat #10687010) and 15 μg/mL Blasticidin (Gibco Cat #R21001). A 1 mL sample of the cell suspension in growth media was counted on a Becton Dickinson ViCell to determine cell viability and cell count per mL. The remaining cell suspension was then adjusted with growth media to deliver 1600 viable cells per well using a Matrix Combi Multidrop reagent dispenser, and the cells were dispensed into a white 384 well tissue culture treated assay plate (Corning 3570). The assay plate was then incubated for 48 hours at 37° C. in a humidified environment (95% O2, 5% CO2)
Varying concentrations of each compound to be tested (in DMSO) were diluted in assay buffer [HBSS with Calcium/Magnesium (Lonza/BioWhittaker cat #10-527F)/0.1% BSA (Sigma Aldrich cat #A7409-1L)/20 mM HEPES (Lonza/BioWhittaker cat #17-737E)] containing 100 μM 3-isobutyl-1-methylxanthin (IBMX; Sigma cat #15879). The final DMSO concentration in the compound/assay buffer mixture is 1%.
After 48 hours, the growth media was removed from the assay plate wells, and the cells were treated with 20 μL of the serially diluted compound in assay buffer for 30 minutes at 37° C. in a humidified environment (95% O2, 5% CO2). Following the 30 minute incubation, 10 μL of labeled d2 cAMP and 10 μL of anti-cAMP antibody (both diluted 1:20 in cell lysis buffer; as described in the manufacturer's assay protocol) were added to each well of the assay plate. The plates were then incubated at room temperature and after 60 minutes, changes in the HTRF signal were read with an Envision 2104 multi-label plate reader using excitation of 330 nm and emissions of 615 and 665 nm. Raw data were converted to nM cAMP by interpolation from a cAMP standard curve (as described in the manufacturer's assay protocol) and the percent effect was determined relative to a saturating concentration of the full agonist GLP-1 (1 μM) included on each plate. EC50 determinations were made from agonist dose response curves analyzed with a curve fitting program using a 4-parameter logistic dose response equation.

As to `C[C@]1(c2ccc(Cl)cn2)Oc2cccc(C3CCNCC3)c2O1` [Metabolite 331], in the data set with rabbit hepatocytes, the “metabolite of Compound 2 observed in rabbit hepatocyte incubations” value is listed as “observed in all hepatocyte incubations”. The “Relative abundance of metabolite of Compound 2, Rabbit” value in the data set on rabbit hepatocytes (rabbit cryopreserved hepatocytes, HPLC/UV/MS) is “trace”. The “detected in rat plasma” value in data set [1] is recorded as “observed”; in data set [1] (listed as m/z 331), “detected”. In addition, the “metabolite of Compound 2 observed in monkey hepatocyte incubations” value in the data set on monkey hepatocytes was “observed in all hepatocyte incubations”. In the data set on monkey hepatocytes (monkey cryopreserved hepatocytes, HPLC/UV/MS), the “Relative abundance of metabolite of Compound 2, Monkey” value is listed as “+”. Also, the “metabolite of Compound 2 observed in rat hepatocyte incubations” value in the data set with rat hepatocytes is reported as “observed in all hepatocyte incubations”. The “Relative abundance of metabolite of Compound 2, Rat” value in the data set on rat hepatocytes (rat cryopreserved hepatocytes, HPLC/UV/MS) is listed as “trace”.

For the compound `C[C@]1(c2ccc(Cl)cn2)Oc2cccc(C3CCN(Cc4nc5ccc(C(=O)O[C@@H]6O[C@H](C(=O)O)[C@@H](O)[C@H](O)[C@H]6O)cc5n4C[C@@H]4CCO4)CC3)c2O1` [Metabolite 751b], the maximal response (Emax) at human GLP-1R turned out to be 68%. Besides, the “metabolite of Compound 2 observed in rabbit hepatocyte incubations” value in the data set with rabbit hepatocytes is reported as “observed in all hepatocyte incubations”. The “detected in rat plasma” value in data set [1] is given as “observed”; in data set [1] (listed as m/z 751b), “detected”. Further, the “metabolite of Compound 2 observed in monkey hepatocyte incubations” value in the data set with monkey hepatocytes was “observed in all hepatocyte incubations”. Moreover, the “metabolite of Compound 2 observed in rat hepatocyte incubations” value in the data set on rat hepatocytes is “observed in all hepatocyte incubations”.

Usually Emax stands for the greatest response seen or fitted, relative to the assay's reference.
